Laboratory results: patent publication US20140127231A1, “p38 MAPK Pathway Inhibitors as Female-Specific Therapeutics” (UNIVERSITY OF VERMONT, priority 2012, published 2014)
Entries after “also recorded” stand apart in the source; their conditions may differ.

How the values were obtained:
[1] = system: Naïve CD4+ T cells cultured under TH17 polarizing conditions; experiment: In vitro TH17 differentiation of CD4+ T cells, IL-17 production; format: cell-based, mice; conditions: 3 days
Experimental: Naïve CD4+ T cells were purified by negative selection and cultured under TH17 polarizing conditions for 3 days in the presence of SB20350 (5 μM if not otherwise indicated). IL-17 secretion was analyzed by ELISA (FIG. 3A). Relative IL-17 mRNA was assessed by qRT-PCR (FIG. 3B). IL-17 levels were assessed using intracellular staining and flow cytometry (FIG. 3C).
Total CD4 T cells were isolated from spleen and lymph nodes as previously described (Noubade et al., 2007, J Clin Invest., 117(11):3507-3518), by negative selection for CD8-, MHC class II-, NK1.1- and CD11b-positive cells using magnetic beads from QIAGEN. For FACS sorting, negatively selected CD4 T cells were stained with anti-TCRβ-allophycocyanin and anti-CD4-Texas Red (Invitrogen), and sorted using a FACSAria cell sorting system (BD Biosciences). Th17 CD4 T cells were generated by activating total CD4 T cells (1×10^6 cells/mL) in RPMI containing 10% FBS (Hyclone), with plate bound anti-CD3 (5 μg/mL) and soluble anti-CD28 (1 μg/mL) mAbs from BD Pharmingen in the presence of 1 ng/mL TGFβ (PeproTech Inc), 30 ng/mL IL-6 (R&D Systems), 10 μg/mL anti-IFNγ, and 10 μg/mL anti-IL-4 mAbs. […]
For intracellular cytokine staining, either FACS-sorted or total CD4 T cells polarized to Th17 cells in the absence or the presence of 5 μM SB203580 were stimulated with 5 ng/mL PMA, 250 ng/mL ionomycin, and 2 μM monensin (Sigma-Aldrich) for the last 4 hours of culture. […] Cells were collected using a LSR II cytometer (BD Biosciences) and analyzed using FlowJo software (TreeStar Inc).
Total RNA was extracted from CD4 T cells using RNeasy RNA isolation reagent (QIAGEN) as recommended by the manufacturer. The generated cDNA was used in quantitative real-time PCR using the assay-on-demand (AOD) TaqMan probe and primers for IL-17A and β2-microglobulin (Applied Biosystems). β2-microglobulin was used as a reference gene and relative mRNA levels were calculated using the comparative CT method.
IL-17 production was analyzed by various methods including ELISA, qRT-PCR, and intracellular staining and flow cytometry.

[2] = system: experimental autoimmune encephalomyelitis (EAE); experiment: Active EAE, 2×MOG35-55+CFA, clinical course (Example 1/2); format: in vivo, C57BL/6J (B6) mice; conditions: for Clinical EAE course: daily treatment from D0, 5 mg/kg/d IP
Experimental: EAE was induced in female C57BL/6J mice as described previously (Noubade et al., 2007, J Clin Invest., 117(11):3507-3518). Mice were injected subcutaneously with an emulsion containing 200 μg of MOG35-55 peptide ([…] (SEQ ID NO: 1) and complete Freund adjuvant (CFA; Sigma-Aldrich) supplemented with 200 μg of Mycobacterium tuberculosis H37RA (Difco Laboratories) in the posterior right and left flank; 1 week later, all mice were similarly injected at 2 sites on the right and left flank anterior of the initial injection sites (2×MOG35-55+CFA). Mice received 5 mg/kg/d SB203580 dihydrochloride (Tocris) by IP injection in a total volume of 200 μL or an equal volume of carrier every day from the day of immunization.
EAE was induced in B10.BR, MKK6-Tg, and dn-p38-Tg mice by immunizing with a single injection of 200 μg of MOG97-114 (TCFFRDHSYQEEAAVELK (SEQ ID NO: 2)) or PLP180-209 ([…] (SEQ ID NO: 3)) in CFA. Immediately thereafter, each animal received 200 ng of PTX (List Biologic Laboratories) by IV injection. Mice were scored daily starting at day 10 after injection as previously described (Noubade et al., 2007, J Clin Invest., 117(11):3507-3518). Clinical quantitative trait variables were generated as previously described (Butterfield et al., 1998, J Immunol., 161(4):1860-1867).
Age-matched male and female C57BL/6J (B6) mice were treated with the p38 MAPK inhibitor SB203580 (SB) starting at the time of immunization for the induction of EAE with myelin oligodendrocyte glycoprotein peptide 35-55 (MOG35-55) and complete Freund's adjuvant (CFA). Clinical EAE course in male and female B6 mice immunized with 2×MOG35-55-CFA treated daily with either carrier or SB starting on D0. […] In separate experiments, Clinical EAE course in female B6 mice immunized with 2×MOG35-55-CFA and randomly selected for daily treatment with either carrier or SB upon reaching a clinical score≧1. It was observed that disease progression could also be halted in female mice if the inhibitor was administered at the first onset of clinical signs (FIG. 1B).

[3] = female B6 mice, treatment from D0 stopped after 30 days

SMILES: C[S+]([O-])c1ccc(-c2nc(-c3ccncc3)c(-c3ccc(F)cc3)[nH]2)cc1 (stereo not shown) [SB203580]
- Cellular IL-17 protein levels (intracellular staining, flow cytometry) ([1]; 5 μM): decreased
- IL-17 mRNA levels (qRT-PCR) ([1]; 5 μM): not significantly affected
- IL-17 production / secretion (ELISA) ([1]; inhibitor present, listed as SB): suppressed IL-17 production in a dose-dependent manner; also recorded: decreased; also recorded: reduced IL-17 production in vitro; also recorded: inhibits IL-17 production at a post-transcriptional level
- Clinical EAE course ([2]; female B6 mice): female-specific therapy for EAE; also recorded: ameliorated EAE
- Clinical EAE course ([2]; female B6 mice, listed as SB): fully prevented disease; also recorded: completely inhibits EAE
- Disease progression (clinical EAE course) ([2]; female B6 mice, daily treatment started upon reaching clinical score ≧1): halted
- Disease severity on readministration ([2]; female B6 mice, re-treated from D41 thru D60): modest reduction and stabilization of their disease severity
- EAE severity reached after discontinuing treatment [2, 3]: equivalent severity to those seen in carrier-treated mice
- Time to appearance of clinical signs of EAE after discontinuing treatment [2, 3]: 2 to 3 days
- Clinical EAE course ([2]; male B6 mice, listed as SB): completely unresponsive
